In patent US20020094522A1, “Means and methods for monitoring non-nucleoside reverse transcriptase inhibitor antiretroviral therapy and guiding therapeutic decisions in the treatment of HIV/AIDS” (priority 2000, published 2002):

Assays:
[1] = tested on: patient 780 virus (RT K103N, P225H); assay: Phenotypic susceptibility assay, patient 780; type: cell-based, HIV; conditions: patient 780, FIG. 8B
Excerpt: The resistance test vectors containing a functional luciferase gene cassette were constructed and host cells were transfected with the resistance test vector DNA. The resistant test vectors contained patient-derived reverse transcriptase and protease sequences that were either susceptible or resistant to the antiretroviral agents, such as nucleoside reverse transcriptase inhibitors, non-nucleoside reverse transcriptase inhibitors and protease inhibitors. The resistance test vector viral particles produced by transfecting the resistance test vector DNA into host cells, either in the presence or absence of protease inhibitors, were used to infect target host cells grown either in the absence of NRTI or NNRTI or in the presence of increasing concentrations of the drug. […] The IC50 values were determined by plotting percent drug inhibition vs. log10 drug concentration.
Host cells were seeded in 10-cm-diameter dishes and were transfected several days after plating with resistance test vector plasmid DNA and the envelope expression vector. […] HIV capsid protein (p24) levels in the harvested cell culture media were determined by an EIA method as described by the manufacturer (SIAC; Frederick, Md.). […] The inhibitory effect of the drug was determined using the following equation: […]

[2] = tested on: RTV-300 (patient sample 97-300); assay: Phenotypic susceptibility assay, RTV-300; type: cell-based, HIV-1; conditions: RTV-300, patient-derived pool
Procedure: (§1) Transfections were performed using a calcium-phosphate precipitation procedure. […] Cell lysates were assayed for luciferase activity (FIG. 3).
(§2) The drug inhibition curves are shown in (FIG. 3).
(§3) A resistance test vector was constructed as described in Example 1 from a patient sample designated 97-300. This patient had been previously treated with d4T and 3TC (NRTIs), indinavir (a PRI) and efavirenz (an NNRTI). Isolation of viral RNA and RT/PCR was used to generate a patient derived segment that comprised viral sequences coding for all of PR and aa 1-313 of RT. The PDS was inserted into an indicator gene viral vector to generate a resistance test vector designated RTV-300. RTV-300 was then tested in a phenotypic assay to determine accurately and quantitatively the level of susceptibility to a panel of anti-retroviral drugs. […] An IC50 was determined for the resistance test vector pool for each drug tested. The pattern of susceptibility to all of the drug tested was examined and compared to known patterns of susceptibility.

[3] = tested on: RTV-964 (patient sample 98-964); assay: Phenotypic susceptibility assay, RTV-964; type: cell-based, HIV-1; conditions: RTV-964, patient-derived pool
Procedure: as §1, §2
as §3, with “designated 98-964. […]” for “designated 97-300. This patient had been previously treated with d4T and 3TC (NRTIs), indinavir (a PRI) and efavirenz (an NNRTI).”, “viral sequence” for “viral sequences”, “designated RTV-964. RTV-964” for “designated RTV-300. RTV-300”, “the drugs” for “the drug”

[4] = tested on: RTV-209 (patient sample 97-209); assay: Phenotypic susceptibility assay, RTV-209; type: cell-based, HIV-1; conditions: RTV-209, patient-derived pool
Procedure: as §1, §2
A resistance test vector was constructed as described in Example 1 from a patient sample designated 97-209. This patient had been previously treated with AZT, ddI, d4T and 3TC (NRTIs), indinavir (a PRIs) and adefovir. Isolation of viral RNA and RT/PCR was used to generate a patient derived segment that comprised viral sequences coding for all of PR and aa 1-313 of RT. The PDS was inserted into an indicator gene viral vector to generate resistance test vector designated RTV-209. RTV-209 was then tested in a phenotypic assay to determine accurately and quantitatively the level of susceptibility to a panel of anti-retroviral drugs. […] An IC50 was determined for the resistance test vector pool for each drug tested. […]. The pattern of susceptibility to all of the drugs tested was examined and compared to known patterns of susceptibility.

[5] = tested on: RTVs containing P236L plus K103N, Y181C or both (K103N+Y181C); assay: Phenotypic susceptibility assay, P236L added to K103N, Y181C or both; type: cell-based, HIV-1; conditions: P236L with K103N
Procedure: as §1, §2
(§4) Resistance test vectors were constructed containing the P236L mutation alone and in combination with other known drug resistance mutations (K103N, Y181C) that are known to modulate the susceptibility of HIV-1 to NNRTIs. […] The P236L mutation was also introduced into a RTV containing mutations at K103N, Y181C or both (K103N+Y181C).

[6] = tested on: RTV-302 (patient sample 97-302; K103N, P225H); assay: Phenotypic susceptibility assay, RTV-302; type: cell-based, HIV-1; conditions: RTV-302, patient-derived
Procedure: as §1, §2
A resistance test vector was constructed as described in example 1 from a patient sample designated as 97-302. This patient had been treated with d4T, indinavir and DMP-266 for a period of approximately 10 months. Isolation of viral RNA and RT/PCR was used to generate a patient derived segment that comprised viral sequences coding for all of PR and aa 1-313 of RT. The patient derived segment was inserted into a indicator gene viral vector to generate a resistance test vector designated RTV-302. RTV-302 was tested using a phenotypic susceptibility assay to determine accurately and quantitatively the level of susceptibility to a panel of anti-retroviral drugs. […] An IC50 was determined for each drug tested. Susceptibility of the patient virus to each drug was examined and compared to known patterns of susceptibility.

[7] = tested on: P236L-RTV (HIV reverse transcriptase P236L); assay: Phenotypic susceptibility assay, P236L-RTV; type: cell-based, HIV-1; conditions: P236L mutation alone
Procedure: as §1, §2, §4

Compound	susceptibility/resistance profile [1]	fold decrease in susceptibility (IC50) [2]	fold decrease in susceptibility (IC50) [3] [fold]	fold decrease in susceptibility (IC50) [4]	change in susceptibility compared to the corresponding RTV lacking P236L [5]	change in susceptibility [6]	change in susceptibility compared to wild type reference RTV [7]
CC(C)Nc1cccnc1N1CCN(C(=O)c2cc3cc(NS(C)(=O)=O)ccc3[nH]2)CC1 [delavirdine]	reduced susceptibility	25 fold	10	75 fold	less susceptible (more resistant) to delavirdine if the P236L mutation was present	modest decrease in delavirdine susceptibility	less susceptible to delavirdine than a wild type reference RTV
Cc1ccnc2c1NC(=O)c1cccnc1N2C1CC1 [nevirapine]	reduced susceptibility	greater than 800 fold	750	greater than 800 fold	did not significantly alter nevirapine susceptibility	significant decrease in nevirapine susceptibility	no significant change in nevirapine susceptibility
